The text below walks through data of US11192891B2, “Diazaspiro ROCK inhibitors” (BRISTOL-MYERS SQUIBB COMPANY, priority 2017, dated 2021).

One may read the IC50 as the point on the concentration scale where inhibition reaches its midpoint. Low values mean greater potency, high ones weaker potency.

SMILES strings stand for the structures. Structures can show the parent of a compound that is named as a salt.

ROCK2, sequence (O75116 whole entry, species assumed): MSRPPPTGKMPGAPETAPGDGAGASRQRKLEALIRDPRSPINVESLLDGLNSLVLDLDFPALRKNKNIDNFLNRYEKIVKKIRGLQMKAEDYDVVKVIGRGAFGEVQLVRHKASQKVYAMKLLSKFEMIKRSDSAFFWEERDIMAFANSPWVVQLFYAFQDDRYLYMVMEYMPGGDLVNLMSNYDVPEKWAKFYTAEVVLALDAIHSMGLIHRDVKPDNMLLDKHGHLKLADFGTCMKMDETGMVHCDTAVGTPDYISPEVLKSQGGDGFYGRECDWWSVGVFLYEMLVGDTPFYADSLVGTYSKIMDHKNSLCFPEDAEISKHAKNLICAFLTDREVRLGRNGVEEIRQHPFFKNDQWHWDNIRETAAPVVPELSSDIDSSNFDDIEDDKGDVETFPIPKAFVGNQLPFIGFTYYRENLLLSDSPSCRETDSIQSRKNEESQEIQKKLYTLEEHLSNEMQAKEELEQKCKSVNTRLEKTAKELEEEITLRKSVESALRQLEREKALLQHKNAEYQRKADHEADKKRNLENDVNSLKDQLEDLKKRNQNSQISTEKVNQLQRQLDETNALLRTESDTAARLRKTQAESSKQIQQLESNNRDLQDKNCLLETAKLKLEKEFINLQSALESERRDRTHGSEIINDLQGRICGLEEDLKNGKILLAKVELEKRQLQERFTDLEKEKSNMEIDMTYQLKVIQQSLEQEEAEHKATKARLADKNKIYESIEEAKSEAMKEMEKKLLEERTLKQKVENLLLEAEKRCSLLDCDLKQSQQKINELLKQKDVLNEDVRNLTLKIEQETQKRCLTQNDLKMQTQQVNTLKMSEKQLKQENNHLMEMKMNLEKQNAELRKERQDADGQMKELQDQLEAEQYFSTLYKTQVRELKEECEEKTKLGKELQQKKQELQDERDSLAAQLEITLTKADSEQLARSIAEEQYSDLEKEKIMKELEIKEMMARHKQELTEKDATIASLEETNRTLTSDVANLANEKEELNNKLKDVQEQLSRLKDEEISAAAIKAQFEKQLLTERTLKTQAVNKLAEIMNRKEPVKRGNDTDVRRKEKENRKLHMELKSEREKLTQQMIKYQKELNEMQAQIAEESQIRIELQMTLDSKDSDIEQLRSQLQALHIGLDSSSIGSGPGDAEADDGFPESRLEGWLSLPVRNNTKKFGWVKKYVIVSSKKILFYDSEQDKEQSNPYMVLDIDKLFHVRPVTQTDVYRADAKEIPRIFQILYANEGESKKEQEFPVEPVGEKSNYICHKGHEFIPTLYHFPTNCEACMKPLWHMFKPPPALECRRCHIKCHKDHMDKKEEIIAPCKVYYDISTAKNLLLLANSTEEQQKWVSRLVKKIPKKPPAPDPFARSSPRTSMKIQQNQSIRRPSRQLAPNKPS

This assay has as its target ROCK2 (Homo sapiens, UniProt O75116). The assay can be described thus: ROCK kinase inhibition assay, FITC peptide substrate, LABCHIP 3000 readout. In kind it is biochemical. The following applies: 5 μM ATP, 1.5 μM peptide substrate. In a few lines: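 Rho kinase variants started the reaction with compound present (DMSO <2%); after incubation, EDTA stop, and phosphorylated and non-phosphorylated peptide separated by microfluidic electrophoresis. Dose-response format, inhibition calculated at each concentration.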
In turn, `COc1cc(-c2cn[nH]c2)ccc1C(=O)N1CCC2(CC1)CCN(c1ccc(-c3cn[nH]c3)c(OC)c1)C2=O` [Example 159, 8-[2-methoxy-4-(1H-pyrazol-4-yl)benzoyl]-2-[3-methoxy-4-(1H-pyrazol-4-yl)phenyl]-2,8-diazaspiro[4.5]decan-1-one] came in with a concentration for half-maximal inhibition (IC50) of 29 nM.

For the compound `COc1cc(N2CCC3(CCN(C(=O)C4CCN(S(C)(=O)=O)CC4)CC3)C2=O)ccc1-c1cn[nH]c1` [Example 154, 8-(1-methanesulfonylpiperidine-4-carbonyl)-2-[3-methoxy-4-(1H-pyrazol-4-yl)phenyl]-2,8-diazaspiro[4.5]decan-1-one], the IC50 was 2000 nM.

Compound `COc1cc(N2CCC3(CCN(C(=O)c4cc(C(C)C)n5ncnc(O)c45)CC3)C2=O)ccc1-c1cn[nH]c1` [Example 200, 8-[4-hydroxy-7-(propan-2-yl)pyrrolo[2,1-f][1,2,4]triazine-5-carbonyl]-2-[3-methoxy-4-(1H-pyrazol-4-yl)phenyl]-2,8-diazaspiro[4.5]decan-1-one] showed an IC50 of 2.1 nM.

The compound `COc1cc(N2CCC3(CCN(C(=O)c4cccs4)CC3)C2=O)ccc1-c1cn[nH]c1` [Example 89, 2-[3-methoxy-4-(1H-pyrazol-4-yl)phenyl]-8-(thiophene-2-carbonyl)-2,8-diazaspiro[4.5]decan-1-one] came in with an IC50 of 117 nM.

On to `COc1cc(N2CCC3(CCN(C(=O)c4ccoc4)CC3)C2=O)ccc1-c1cn[nH]c1` [Example 65, 8-(furan-3-carbonyl)-2-[3-methoxy-4-(1H-pyrazol-4-yl)phenyl]-2,8-diazaspiro[4.5]decan-1-one], for which the midpoint of inhibition, the IC50, lay at 752 nM.

Regarding `COc1cc(N2CCC3(CCN(C(=O)c4ccc(N5CCN(Cc6cccc(NS(C)(=O)=O)c6)CC5)cc4)CC3)C2=O)ccc1-c1cn[nH]c1` [Example 235, N-(3-{[4-(4-{2-[3-methoxy-4-(1H-pyrazol-4-yl)phenyl]-1-oxo-2,8-diazaspiro[4.5]decane-8-carbonyl}phenyl)piperazin-1-yl]methyl}phenyl)methanesulfonamide], the IC50 came out at 0.2 nM.

Compound `COc1cc(N2CCC3(CCN(C(=O)c4cc(=O)n5nnnc5[nH]4)CC3)C2=O)ccc1-c1cn[nH]c1` [Example 129, 2-[3-methoxy-4-(1H-pyrazol-4-yl)phenyl]-8-{7-oxo-4H,7H-[1,2,3,4]tetrazolo[1,5-a]pyrimidine-5-carbonyl}-2,8-diazaspiro[4.5]decan-1-one] showed a half-maximal inhibitory concentration (IC50) of 292 nM.

`COCCN1Cc2cccc(C(=O)N3CCC4(CC3)CCN(c3ccc(-c5cn[nH]c5)c(OC)c3)C4=O)c2C1=O` [Example 204, 2-[3-methoxy-4-(1H-pyrazol-4-yl)phenyl]-8-[2-(2-methoxyethyl)-3-oxo-2,3-dihydro-1H-isoindole-4-carbonyl]-2,8-diazaspiro[4.5]decan-1-one] gave an IC50 of 50 nM.

On to `CCc1ccc(C(=O)N2CCC3(CC2)CCN(c2ccc(-c4cn[nH]c4)c(OC)c2)C3=O)cc1` [Example 20, 8-(4-ethylbenzoyl)-2-[3-methoxy-4-(1H-pyrazol-4-yl)phenyl]-2,8-diazaspiro[4.5]decan-1-one], for which inhibition was half-maximal at 50 nM (IC50).

The compound `COc1ccc(C(=O)N2CCC3(CCN(c4ccc(-c5cn[nH]c5)cc4)C3=O)C2)cc1` (centres unmarked) [Example 45, 7-(4-methoxybenzoyl)-2-[4-(1H-pyrazol-4-yl)phenyl]-2,7-diazaspiro[4.4]nonan-1-one] gave an IC50 of 180 nM.

`COc1cc(N2CCC3(CCN(C(=O)c4cc(Cl)no4)CC3)C2=O)ccc1-c1cn[nH]c1` [Example 109, 8-(3-chloro-1,2-oxazole-5-carbonyl)-2-[3-methoxy-4-(1H-pyrazol-4-yl)phenyl]-2,8-diazaspiro[4.5]decan-1-one] gave an IC50 of 362 nM.

Compound `COc1cc(N2CCC3(CCN(C(=O)c4ccc(N5CCN(Cc6nccs6)CC5)cc4)CC3)C2=O)ccc1-c1cn[nH]c1` [Example 236, 2-[3-methoxy-4-(1H-pyrazol-4-yl)phenyl]-8-(4-{4-[(1,3-thiazol-2-yl)methyl]piperazin-1-yl}benzoyl)-2,8-diazaspiro[4.5]decan-1-one] showed an IC50 of 2.7 nM.

Turning to `COc1cc(N2CCC3(CCN(C(=O)c4cc(C)on4)CC3)C2=O)ccc1-c1cn[nH]c1` [Example 104, 2-[3-methoxy-4-(1H-pyrazol-4-yl)phenyl]-8-(5-methyl-1,2-oxazole-3-carbonyl)-2,8-diazaspiro[4.5]decan-1-one], half-maximal inhibition (IC50) was put at 72 nM.

With `COc1cc(N2CCC3(CCN(C(=O)c4cccc5ccncc45)CC3)C2=O)ccc1-c1cn[nH]c1` [Example 203, 8-(isoquinoline-8-carbonyl)-2-[3-methoxy-4-(1H-pyrazol-4-yl)phenyl]-2,8-diazaspiro[4.5]decan-1-one], the IC50 is 326 nM.

For `COc1ccccc1C(=O)N1CCC2(CCN(c3ccc(-c4cn[nH]c4)cc3)C2=O)C1` (centres unmarked) [Example 43, 7-(2-methoxybenzoyl)-2-[4-(1H-pyrazol-4-yl)phenyl]-2,7-diazaspiro[4.4]nonan-1-one], the IC50 was 2560 nM.

On to `COc1cc(N2CCC3(CCN(C(=O)c4ccc(-c5ccccc5)o4)CC3)C2=O)ccc1-c1cn[nH]c1` [Example 85, 2-[3-methoxy-4-(1H-pyrazol-4-yl)phenyl]-8-(5-phenylfuran-2-carbonyl)-2,8-diazaspiro[4.5]decan-1-one], for which the IC50 worked out at 851 nM.

Take `CN1CCN(c2ccc(C(=O)N3CCC4(CC3)CCN(c3cccc(-c5ccc6[nH]ncc6c5)c3)C4=O)cc2)CC1` [Example 51, 2-[3-(1H-indazol-5-yl)phenyl]-8-[4-(4-methylpiperazin-1-yl)benzoyl]-2,8-diazaspiro[4.5]decan-1-one]: the IC50 was 14 nM.

`COc1cc(N2CCC3(CCN(C(=O)c4ccc(N5CCCC5)cc4)CC3)C2=O)ccc1-c1cn[nH]c1` [Example 191]: the IC50 worked out at 4 nM.

Take `COc1cc(N2CCC3(CCN(C(=O)c4cc(C(C)C)n[nH]4)CC3)C2=O)ccc1-c1cn[nH]c1` [Example 110, 2-[3-methoxy-4-(1H-pyrazol-4-yl)phenyl]-8-[3-(propan-2-yl)-1H-pyrazole-5-carbonyl]-2,8-diazaspiro[4.5]decan-1-one]: inhibition was half-maximal at 34 nM (IC50).

As to `O=C1N(c2ccc(-c3cn[nH]c3)cc2)CCC12CCNCC2` [Intermediate 3, 2-(4-(1H-pyrazol-4-yl)phenyl)-2,8-diazaspiro[4.5]decan-1-one, TFA], the midpoint of inhibition, the IC50, lay at 1010 nM.

`COc1cc(N2CCC3(CCN(C(=O)c4ccc(N5CCCOC5=O)cc4)CC3)C2=O)ccc1-c1cn[nH]c1` [Example 137, 2-[3-methoxy-4-(1H-pyrazol-4-yl)phenyl]-8-[4-(2-oxo-1,3-oxazinan-3-yl)benzoyl]-2,8-diazaspiro[4.5]decan-1-one] displayed an IC50 of 7.1 nM.

The compound `COc1cc(N2CCC3(CCN(C(=O)c4ccc5c(c4)OCC(=O)N5)CC3)C2=O)ccc1-c1cn[nH]c1` [Example 157, 7-{2-[3-methoxy-4-(1H-pyrazol-4-yl)phenyl]-1-oxo-2,8-diazaspiro[4.5]decane-8-carbonyl}-3,4-dihydro-2H-1,4-benzoxazin-3-one] registered an IC50 of 22 nM.

`COC(=O)c1ccc(S(=O)(=O)N2CCC3(CCN(c4ccc(-c5cn[nH]c5)c(OC)c4)C3=O)CC2)o1` [Example 208, methyl 5-({2-[3-methoxy-4-(1H-pyrazol-4-yl)phenyl]-1-oxo-2,8-diazaspiro[4.5]decan-8-yl}sulfonyl)furan-2-carboxylate] came in with an IC50 of 2070 nM.

`COc1ccc(C(=O)N2CCC3(CC2)CN(c2ccc(-c4cn[nH]c4)cc2)C3=O)cc1` [Example 40, 7-(4-methoxybenzoyl)-2-[4-(1H-pyrazol-4-yl)phenyl]-2,7-diazaspiro[3.5]nonan-1-one] displayed an IC50 of 132 nM.

Compound `COc1cc(N2CCC3(CCN(C(=O)c4ccc(Cl)cn4)CC3)C2=O)ccc1-c1cn[nH]c1` [Example 123, 8-(5-chloropyridine-2-carbonyl)-2-[3-methoxy-4-(1H-pyrazol-4-yl)phenyl]-2,8-diazaspiro[4.5]decan-1-one] gave an IC50 of 65 nM.

In turn, `COc1cccc(S(=O)(=O)N2CCC3(CCN(c4ccc(-c5cn[nH]c5)c(OC)c4)C3=O)CC2)c1` [Example 207, 2-[3-methoxy-4-(1H-pyrazol-4-yl)phenyl]-8-(3-methoxybenzenesulfonyl)-2,8-diazaspiro[4.5]decan-1-one] registered an IC50 of 266 nM.

`COc1cc(N2CCC3(CCN(S(=O)(=O)c4ccc5ncsc5c4)CC3)C2=O)ccc1-c1cn[nH]c1` [Example 211, 8-(1,3-benzothiazole-6-sulfonyl)-2-[3-methoxy-4-(1H-pyrazol-4-yl)phenyl]-2,8-diazaspiro[4.5]decan-1-one] came in with an IC50 of 46 nM.

On to `COc1cc(N2CCC3(CCN(C(=O)c4ccc(Cn5ccnc5)cc4)CC3)C2=O)ccc1-c1cn[nH]c1` [Example 183, 8-{4-[(1H-imidazol-1-yl)methyl]benzoyl}-2-[3-methoxy-4-(1H-pyrazol-4-yl)phenyl]-2,8-diazaspiro[4.5]decan-1-one], for which the IC50 worked out at 23 nM.

Compound `COc1cc(N2CCC3(CCN(C(=O)c4cnc(C)cn4)CC3)C2=O)ccc1-c1cn[nH]c1` [Example 79, 2-[3-methoxy-4-(1H-pyrazol-4-yl)phenyl]-8-(5-methylpyrazine-2-carbonyl)-2,8-diazaspiro[4.5]decan-1-one] displayed an IC50 of 110 nM.

The compound `COc1cc(CN2CCC(C(=O)N3CCC4(CC3)CCN(c3ccc(-c5cn[nH]c5)c(OC)c3)C4=O)CC2)ccc1F` [Example 151, 8-{1-[(4-fluoro-3-methoxyphenyl)methyl]piperidine-4-carbonyl}-2-[3-methoxy-4-(1H-pyrazol-4-yl)phenyl]-2,8-diazaspiro[4.5]decan-1-one] displayed a concentration for half-maximal inhibition (IC50) of 2470 nM.

Consider `COc1cc(N2CCC3(CCN(C(=O)c4ncc(OC)c5ccccc45)CC3)C2=O)ccc1-c1cn[nH]c1` [Example 90, 2-[3-methoxy-4-(1H-pyrazol-4-yl)phenyl]-8-(4-methoxyisoquinoline-1-carbonyl)-2,8-diazaspiro[4.5]decan-1-one], for which 127 nM corresponded to half-maximal inhibition (IC50).

For `COc1cc(N2CCC3(CCN(C(=O)c4ccc(N5CCN(Cc6cccnc6)CC5)cc4)CC3)C2=O)ccc1-c1cn[nH]c1` [Example 243, 2-[3-methoxy-4-(1H-pyrazol-4-yl)phenyl]-8-(4-{4-[(pyridin-3-yl)methyl]piperazin-1-yl}benzoyl)-2,8-diazaspiro[4.5]decan-1-one], the midpoint of inhibition, the IC50, lay at 1 nM.
